Laboratory results: patent US4438131A, “.OMEGA.-Cyano-1, .OMEGA.-diphenyl-azaalkane derivatives, their preparation and drugs containing them” (BASF Aktiengesellschaft, priority 1981, dated 1984)
Where two headings read alike, the source gives them in different places.

How the values were obtained:
[1] = test system: creatine phosphate concentration in the myocardium; assay: Cardio-protective action against hypoxic cardiac metabolism disorders, oral, rats; format: in vivo, rat (Wistar); conditions: compounds 2-40 mg/kg, verapamil up to 40 mg/kg
Experimental: A drastic depletion of energy-rich phosphates in the mycocardium of anesthetized rats (Wistar, weight: 250-350 g, anesthetic: thiobutabarbital 100 mg/kg i.p.) was produced by standardized respiration with an oxygen-deficient mixture (2% of O2).
The test substances were administered to the still conscious animals 6 hours before the oxygen-deficient respiration. The percentage difference between the creatine phosphate concentration in the myocardium of animals pretreated with the test substance and that of the untreated hypoxic control animals was determined.

systolic blood pressure = assay: Antihypertensive action, spontaneously hypertensive rats (SHR), oral; format: in vivo; conditions: for Lowering of systolic blood pressure, R.A. (relative activity; verapamil = 1.00) / ED20: SHR, peroral; for ED20: Rattus norvegicus, po, read-out: Lowering of systolic blood pressure, ED 20%; for Antihypertensive action (in words): after 24 hours, SH rats, verapamil at 100 mg/kg
Experimental: The substances were administered orally to male spontaneously hypertensive rats (SHR) of the Okamoto strain (weight: 300-400 g). The systolic blood pressure was determined non-operatively on the tails of the rats by piezo-crystal measurements before and 2, 6, 24 and, where relevant, 30 hours after administration.
The dose which reduced the systolic pressure by 20%, taking into consideration the values from untreated control animals, was taken as the ED 20%.

[2] = test system: passive cutaneous anaphylaxis (PCA); assay: Antiallergic action, passive cutaneous anaphylaxis (PCA) in rats, oral; format: in vivo, rat (male); conditions: for % inhibition (diameter of colored spot, PCA): 21.5 mg/kg oral
Experimental: The model of passive cutaneous anaphylaxis (PCA) was used for this test.
Anesthetized male rats (100-140 g) were sensitized by intradermal injection (shaven dorsal skin) of 0.1 ml of an ovalbumin antiserum. After a sensitizing period of about 48 hours, they were treated with the test substances (oral administration). After various latency periods (2, 6, 12 and 24 hours), the experimental animals were injected intravenously with an antigen/Evans blue solution. The animals were sacrificed in each case 30 minutes after the injection, and the dorsal skin was removed and the circular blue stain on the inner surface measured.
The antiallergic action was quoted as the relative inhibition (Δ%) of the diameter of the colored spot.

[3] = test system: collagen-induced platelet aggregation; assay: Platelet aggregation-inhibiting action after oral administration to rats; conditions: Rattus norvegicus, 1 h, read-out: Inhibition of aggregation, ED 33%
Experimental: The substances were administered orally to male Sprague-Dawley rats (200-250 g). 1 hour after administration, samples of blood were taken under ether anesthetic, and platelet-rich plasma was obtained by centrifugation (300 g, 10 minutes at 4° C.). The platelet aggregation was measured photometrically, with the addition of MgCl2 and (end concentration of 10 mmoles/l) and Collagen Stago (end concentration of 0.02 mg/ml), in a Mark 3 Born Aggregometer. The maximum change in extinction/second was used as a measure of the aggregation.

Compound	Lowering of systolic blood pressure, R.A. (relative activity; verapamil = 1.00) (systolic blood pressure; 2 hrs)	Lowering of systolic blood pressure, R.A. (relative activity; verapamil = 1.00) (systolic blood pressure; 6 hrs)	ED20 (systolic blood pressure; 2 hrs) [mg/kg]	ED20 (systolic blood pressure; 6 hrs) [mg/kg]	ED20 (systolic blood pressure; 24 hrs) [mg/kg]	ED33 [3] [mg/kg]	also measured
1-(3,5-Diethoxyphenyl)-3-methylaza-7-cyano-7-(3-ethoxyphenyl)-docosane [Example 68]	–	–	–	–	–	–	Cardio-protective action (in words) [1]: particularly powerful action
CCCCCCCCCCCCC(C#N)(CCCN(C)CCc1cccc(OC)c1)c1cccc(OC)c1 (stereo not drawn) [Example 3, 1,7-bis-(3-Methoxyphenyl)-3-methylaza-7-cyano-nonadecane]	0.93	1.46	24.9	14.1	18.7	9.6	Antihypertensive action (in words) (systolic blood pressure): still have an antihypertensive action; Cardio-protective action (in words) [1]: particularly powerful action; % inhibition (diameter of colored spot, PCA) ([2]; latency period 2 hours): 15%; % inhibition (diameter of colored spot, PCA) ([2]; latency period 6 hours): 40%; % inhibition (diameter of colored spot, PCA) ([2]; latency period 12 hours): 83%; % inhibition (diameter of colored spot, PCA) ([2]; latency period 24 hours): 68%; Antiallergic action (in words) ([2]; after oral administration): long-lasting antiallergic action; Antiallergic action compared with verapamil (in words) ([2]; latency periods of 12 and 24 hours, oral): substantially more powerful action
CCCCCCCCCCCCC(C#N)(CCCN(C)CCc1ccccc1)c1ccccc1 (stereo not drawn) [Example 5, 1,7-Diphenyl-3-methylaza-7-cyano-nonadecane]	–	–	–	–	–	–	Cardio-protective action (in words) [1]: particularly powerful action
CCCCCCCCCCCCCCCC(C#N)(CCCN(C)CCc1cccc(OC)c1)c1cccc(OC)c1 (stereo not drawn) [Example 6, 1,7-bis-(3-Methoxyphenyl)-3-methylaza-7-cyano-docosane]	–	–	–	–	–	49	–
CCCCCCCCCCCCC(C#N)(CCCN(C)CCc1cccc(OC)c1)c1ccc(OC)c(OC)c1 (stereo not drawn) [Example 19, 1-(3-Methoxyphenyl)-3-methylaza-7-cyano-7-(3,4-dimethoxyphenyl)-nonadecane]	3.09	1.04	7.5	19.8	46.4	–	–
CCCCCCCCCCCCC(C#N)(CCCN(C)CCc1cccc(OC)c1)c1cc(OC)c(OC)c(OC)c1 (stereo not drawn) [Example 20, 1-(3-Methoxyphenyl)-3-methylaza-7-cyano-7-(3,4,5-trimethoxyphenyl)-nonadecane]	6.27	3.12	3.7	6.6	12.5	–	Antihypertensive action (in words) (systolic blood pressure): still have an antihypertensive action
CCCCCCCCCCCC(C#N)(CCCN(C)CCc1cccc(OC)c1)c1cccc(OC)c1 (stereo not drawn) [Example 25, 1,7-bis-(3-Methoxyphenyl)-3-methylaza-7-cyano-octadecane]	3.41	2.02	6.8	10.2	46.4	–	–
CCCCCCCCCCCCC(C#N)(CCCN(C)CCc1ccc(SCC)cc1)c1cccc(OC)c1 (stereo not drawn) [Example 42, 1-(4-Ethylmercaptophenyl)-3-methylaza-7-cyano-7-(3-methoxyphenyl)-nonadecane]	2.25	–	0.3	–	58.3	–	–
CCCCCCCCCCCCC(C#N)(CCCN(C)CCc1cc(OC)cc(OC)c1)c1cccc(OCC)c1 (stereo not drawn) [Example 70, 1-(3,5-Dimethoxyphenyl)-3-methylaza-7-cyano-7-(3-ethoxyphenyl)-nonadecane]	–	–	–	–	–	119	–
CCCCCCCCCCCCC(C#N)(CCCNCCc1cccc(OC)c1)c1cccc(OC)c1 (stereo not drawn) [Example 75, 1,7-bis-(3-Methoxyphenyl)-3-aza-7-cyano-nonadecane]	–	–	–	–	–	90.2	–
COc1ccc(CCN(C)CCCC(C#N)(c2ccc(OC)c(OC)c2)C(C)C)cc1OC (stereo not drawn) [Verapamil, 1,7-bis-(3,4-dimethoxyphenyl)-3-methylaza-7-cyano-8-methyl-nonane, reference compound]	–	–	23.2	20.6	–	–	Antihypertensive action (in words) (systolic blood pressure): ineffective; % inhibition (diameter of colored spot, PCA) ([2]; latency period 2 hours): 53%; % inhibition (diameter of colored spot, PCA) ([2]; latency period 6 hours): 50%; % inhibition (diameter of colored spot, PCA) ([2]; latency period 12 hours): 33%; % inhibition (diameter of colored spot, PCA) ([2]; latency period 24 hours): 31%
